Data published in the NIST ThermoML archive (doi:10.1016/j.jct.2011.11.023).
± gives the expanded uncertainty stated by the source.

Columns and labels:
[1] = 298 K; 101.33 kPa; Crystal 2; X-ray diffraction
[2] = Solid-liquid equilibrium temperature; settings: 101.3 kPa, DSC
[3] = Molar enthalpy of transition or fusion; settings: DSC

O=C(O)c1cccnc1 [3-carboxylpyridine]
mass density [1]: 1471 ± 2 kg/m3
Solid-liquid equilibrium temperature ([2]; Crystal 1): 507 ± 2 K
Solid-liquid equilibrium temperature ([2]; Crystal 2): 453.6 ± 0.3 K
Molar enthalpy of transition or fusion ([3]; Crystal 1): 6.62 ± 0.191 kcal/mol
Molar enthalpy of transition or fusion ([3]; Crystal 2): 0.308 ± 0.0311 kcal/mol
